Laboratory results published in patent publication US20240075050A1, “Methods and Compositions for Treating Leucine Rich Repeat Kinase 2 (LRRK2)-Associated Disorder or Condition” (University of Connecticut, priority 2022, published 2024).

Tests used:
LRRK2 = LRRK2 levels in mouse primary neurons, microglia, astrocytes, Western blot; type: cell-based; settings: 1 mM, 48 hours
Description: FIGS. 2A-2T depicts that AICAr, the precursor of ATIC substrate, regulates LRRK2 expression levels and neuronal toxicity. FIGS. 2A and 2B depict the overexpressed LRRK2 levels in HEK 293T cells upon AICAr treatment. HEK293 cells were transfected with MYC-LRRK2 and treated with or without 1 mM AICAr for 48 hours. LRRK2 levels were analyzed by Western blot. FIGS. 2C and 2D depict the LRRK2 expression levels in SH-SY5Y cells upon AICAr treatment. Human neuroblastoma SH-SY5Y cells were treated with or without 1 mM AICAr for 48 hours. LRRK2 expression levels were analyzed by Western blot. FIGS. 2E and 2F depict the overexpressed (3-glucocerebrosidase (GCase) levels upon AICAr treatment. HEK 293T cells were transfected with V5-GCase and treated with or without 1 mM AICAr for 48 hours. GCase levels were analyzed by Western blot. FIGS. 2G-2N depict the LRRK2 expression levels in primary neurons (FIG. 2G and FIG. 2H), microglia (FIG. 2I and FIG. 2J), astrocytes (FIG. 2K and FIG. 2L) and human fibroblasts (FIG. 2M and FIG. 2N) upon AICAr treatment. Mouse primary cortical neurons, microglia, astrocytes or human fibroblasts from a health control were treated with or without 1 mM AICAr for 48 hours. LRRK2 expression levels were analyzed by Western blot. FIGS. 2O and 2P depict the overexpressed LRRK2 WT and pathogenic mutant levels upon AICAr treatment. […] LRRK2 expression levels were analyzed by Western blot. […] One day after injection, striatal tissues near the injection sites were collected and LRRK2 expression levels were analyzed by Western blot. Images were quantified by ImageJ software. […] FIG. 2T depicts the quantification of neuronal viability. Bars indicate the viability (n>100) for each transfection condition expressed as a percent of control neurons (eGFP with pcDNA3.1 empty vector). Data represent the mean±SEM from three independent experiments with n>100 cells quantified in each experiment. *p<0.05, ***p<0.001, ****p<0.0001 by one-way ANOVA followed by a Tukey's post hoc test.

LRRK2 mRNA = LRRK2 mRNA stability assay in the presence of actinomycin D; type: cell-based, human; settings: SH-SY5Y, 2 mM AICAr, 24-h period, 10 μg/ml actinomycin D
Description: FIGS. 3A-3J depict that AICAr regulates LRRK2 at mRNA level and through a specific region. FIGS. 3A and 3B depict the LRRK2 protein levels upon treatment of AICAr together with a proteasome inhibitor MG132 or an autophagy inhibitor chloroquine (CQ). […] LRRK2 expression levels were analyzed by Western blot. Images were quantified by ImageJ software. Data are mean±SEM, n=3 independent experiments. ***p<0.001, ****p<0.0001 by one-way ANOVA followed by a Tukey's post hoc test. FIG. 3C depicts the LRRK2 and GBA mRNA levels upon AICAr treatment. SH-SY5Y cells were treated with or without 2 mM AICAr for 24 hours. Total RNA was extracted. LRRK2 and GBA mRNA levels were analyzed by real-time PCR. Data are mean±SEM, n=4 independent experiments. **p<0.01 by Student's t tests. ns: not statistically significant. […] LRRK2 mRNA levels were analyzed by real-time PCR. […] LRRK2 expression levels were analyzed by Western blot. Images were quantified by ImageJ software. […] LRRK2 deletion mutant expression levels were analyzed by Western blot. FIGS. 3I and 3J depict that the specific region (2221-3927 bp) of the synthesized Flag-LRRK2 cDNA was replaced with the native sequence and the response of this chimeric LRRK2 cDNA expression to AICAr treatment was analyzed by Western blot. Images were quantified by ImageJ software. […]

With NC(=O)c1ncn([C@@H]2O[C@H](CO)[C@@H](O)[C@H]2O)c1N [AICAr, 5-aminoimidazole-4-carboxamide riboside] the “LRRK2 levels in astrocytes” value (LRRK2; mouse primary astrocytes) was “remained unchanged”, the “LRRK2 levels in neurons” value (LRRK2; mouse primary cortical neurons) was “significantly decrease” and the “LRRK2 levels in microglia” value (LRRK2; mouse primary microglia) was “significantly decrease”. The “acceleration of LRRK2 mRNA decay” value (LRRK2 mRNA) was “about twofold”.
